Test results reported in patent US10472418B2, “Composition for preventing or treating lung cancer comprising antibody against CD66C and chemotherapeutic agent” (DINONA, priority 2016, dated 2019).

Test system: anti-CD66c antibody, AP11
Experiment: Inhibition of AP11 binding on A549 cells by recombinant antigen, flow cytometry
Settings: 10, 50 and 100 μg recombinant antigen conjugated with AP11 before A549 cells
Protocol: In order to confirm whether the purified recombinant antigen (CD66c-HuIgFc) in the above Example 1-3 acts as CD66c antigen, inhibition of conjugation of anti-CD66c antibody, AP11, on the surface of A549 cells by the above recombinant antigen was confirmed by flow cytometry, and the result is shown in FIG. 6.
Specifically, after conjugating 0, 10, 50 and 100 μg of the above recombinant antigen with AP11 antibody for 30 min at 4° C., it was added to A549 cells and reacted for 30 min at 4° C., added with 3 ml of PBS, centrifuged for 3 min at 1500 rpm and washed. To confirm the conjugated antibody, secondary antibody, goat anti-Mouse IgM FITC (DiNonA) was diluted 200 times, added, reacted for 15 min at 4° C., washed as above with 3 ml of PBS and measured by flow cytometry.

Substance: CD66c-HuIgFc: recombinant antigen linking CD66c 34~340 aa region and human immunoglobulin Fc region CH2-CH3
- blocking of anti-CD66c mAb (AP11) binding to A549 cells: blocking was observed proportional to the treated amount
